# Measured values: patent US20220220373A1, “FLUORESCENT PROBES FOR MONOACYLGLYCEROL LIPASE (MAGL)” (Hoffmann-La Roche Inc., priority 2019, published 2022)
# pIC50: −log10 of the molar value.
# Target: T1, MAGL (Homo sapiens, UniProt Q99685)
# T1 sequence (Q99685 1-303): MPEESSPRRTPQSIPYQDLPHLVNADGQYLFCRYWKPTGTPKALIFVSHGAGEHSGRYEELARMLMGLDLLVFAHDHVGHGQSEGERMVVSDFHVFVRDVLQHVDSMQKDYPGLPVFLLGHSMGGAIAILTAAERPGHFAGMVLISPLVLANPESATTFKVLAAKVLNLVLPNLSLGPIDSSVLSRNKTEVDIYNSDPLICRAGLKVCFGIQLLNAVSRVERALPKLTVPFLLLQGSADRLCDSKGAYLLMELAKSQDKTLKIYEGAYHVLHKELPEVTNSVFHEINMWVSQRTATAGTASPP
# Assay: 2-AG assay (MAGL inhibitory activity, hydrolysis of 2-arachidonoylglycerol followed by mass spectrometry)
# Format: biochemical
# Conditions: 50 pM MAGL, 8 μM 2-arachidonoylglycerol, 15 min pre-incubation, 30 min incubation at RT
# Description: Compounds were profiled for MAGL inhibitory activity by determining the enzymatic activity by following the hydrolysis of the natural substrate 2-arachidonoylglycerol (2-AG) resulting in arachidonic acid, which can be followed by mass spectrometry. This assay is hereinafter abbreviated “2-AG assay”.
# The 2-AG assay was carried out in 384 well assay plates (PP, Greiner Cat#784201) in a total volume of 20 μL. Compound dilutions were made in 100% DMSO (VWR Chemicals 23500.297) in a polypropylene plate in 3-fold dilution steps to give a final concentration range in the assay from 12.5 μM to 0.8 pM. […] compound dilutions (100% DMSO) were added to 9 μL MAGL in assay buffer (50 mM TRIS (GIBCO, 15567-027), 1 mM EDTA (Fluka, 03690-100 mL), 0.01% (v/v) Tween. After shaking, the plate was incubated for 15 min at RT. To start the reaction, 10 μL 2-arachidonoylglycerol in assay buffer was added. The final concentrations in the assay was 50 pM MAGL and 8 μM 2-arachidonoylglyerol. After shaking and 30 min incubation at RT, the reaction was quenched by the addition of […] of ACN containing 4 μM of d8-arachidonic acid. The amount of arachidonic acid was traced by an online SPE system (Agilent Rapidfire) coupled to a triple quadrupole mass spectrometer (Agilent 6460). A C18 SPE cartridge (G9205A) was used in an ACN/water liquid setup. The mass spectrometer was operated in negative electrospray mode following the mass transitions 303.1→259.1 for arachidonic acid and 311.1→267.0 for d8-arachidonic acid. The activity of the compounds was calculated based on the ratio of intensities [arachidonic acid/d8-arachidonic acid].
row,SMILES,pIC50
1,"O=C(CCOCCOCCNc1ccc([N+](=O)[O-])c2nonc12)NCCOc1cccc(C(c2ccccc2)C2CCN(C(=O)N3CC[C@@H]4OCC(=O)N[C@@H]4C3)CC2)c1 (stereo partly drawn) [Example 3, 3-(2-(2-((7-Nitrobenzo[c][1,2,5]oxadiazol-4-yl)amino)ethoxy)ethoxy)-N-(2-(3-((1-((4aR,8aS)-3-oxooctahydro-2H-pyrido[4,3-b][1,4]oxazine-6-carbonyl)piperidin-4-yl)(phenyl)methyl)phenoxy)ethyl)propanamide]",8.68
2,"NCCOc1cccc(C(c2ccccc2)C2CCN(C(=O)N3CC[C@@H]4OCC(=O)N[C@@H]4C3)CC2)c1 (single isomer, unassigned) [Example 6, (4aR,8aS)-6-[4-[(S or R)-[3-(2-Aminoethoxy)phenyl]-phenyl-methyl]piperidine-1-carbonyl]-4,4a,5,7,8,8a-hexahydropyrido[4,3-b][1,4]oxazin-3-one]",8.28
3,"CC(C)(C)OC(=O)NCCOCCOCCC(=O)NCCOc1cccc(C(c2ccccc2)C2CCN(C(=O)N3CC[C@@H]4OCC(=O)N[C@@H]4C3)CC2)c1 (single isomer, unassigned) [Example 9, tert-Butyl N-[2-[2-[3-[2-[3-[(R or S)-[1-[(4aR,8aS)-3-oxo-4,4a,5,7,8,8a-hexahydropyrido[4,3-b][1,4]oxazine-6-carbonyl]-4-piperidyl]-phenyl-methyl]phenoxy]ethylamino]-3-oxo-propoxy]ethoxy]ethyl]carbamate]",8.59
4,"O=C(CCOCCOCCNc1ccc([N+](=O)[O-])c2nonc12)NCCOc1cccc(C(c2ccccc2)C2CCN(C(=O)N3CC[C@@H]4OCC(=O)N[C@@H]4C3)CC2)c1 (single isomer, unassigned) [Example 13, N-[2-[3-[(R or S)-[1-[(4aR,8aS)-3-Oxo-4,4a,5,7,8,8a-hexahydropyrido[4,3-b][1,4]oxazine-6-carbonyl]-4-piperidyl]phenyl-methyl]phenoxy]ethyl]-3-[2-[2-[(4-nitro-2,1,3-benzoxadiazol-7-yl)amino]ethoxy]ethoxy]propanamide]",8.80
5,"NCCOCCC(=O)NCCOc1cccc([C@@H](c2ccccc2)C2CCN(C(=O)N3CC[C@@H]4OCC(=O)N[C@@H]4C3)CC2)c1 (single isomer, unassigned) [Example 16, N-[2-[3-[(R or S)-[1-1(4aR,8aS)-3-Oxo-4,4a,5,7,8,8a-hexahydropyrido[4,3-b][1,4]oxazine-6-carbonyl]-4-piperidyl]phenyl-methyl]phenoxy]ethyl]-3-(2-aminoethoxy)propanamide]",7.74
6,"O=C(CCOCCNC(=O)CCc1ccc2n1[B-](F)(F)[N+]1=C(c3ccc[nH]3)C=CC1=C2)NCCOc1cccc(C(c2ccccc2)C2CCN(C(=O)N3CC[C@@H]4OCC(=O)N[C@@H]4C3)CC2)c1 (single isomer, unassigned) [Example 21, N-[2-[3-[2-[3-[(S or R)-[1-[(4aR,8aS)-3-oxo-4,4a,5,7,8,8a-hexahydropyrido[4,3-b][1,4]oxazine-6-carbonyl]-4-piperidyl]-phenyl-methyl]phenoxy]ethylamino]-3-oxo-propoxy]ethyl]-3-12,2-difluoro-12-(1H-pyrrol-2-yl)-3-aza-1-azonia-2-boranuidatricyclo[7.3.0.03,7]dodeca-1(12),4,6,8,10-pentaen-4-yl]propanamide]",9.52
7,"NCCOCCOCCOCCC(=O)NCCOc1cccc([C@H](c2ccccc2)C2CCN(C(=O)N3CC[C@@H]4OCC(=O)N[C@@H]4C3)CC2)c1 (single isomer, unassigned) [Example 20, N-[2-[3-[(S or R)-[1-1(4aR,8aS)-3-Oxo-4,4a,5,7,8,8a-hexahydropyrido[4,3-b]11,4]oxazine-6-carbonyl]-4-piperidyfl-phenyl-methyl]phenoxy]ethyl]-3-[2-[2-(2-aminoethoxy)ethoxy]ethoxy]propanamide]",7.94
8,"CC(C)(C)OC(=O)NCCOCCC(=O)NCCOc1cccc([C@@H](c2ccccc2)C2CCN(C(=O)N3CC[C@@H]4OCC(=O)N[C@@H]4C3)CC2)c1 (single isomer, unassigned) [Example 15, tert-Butyl N-[2-[3-[2-[3-[(R or S)-[1-1(4aR,8aS)-3-oxo-4,4a,5,7,8,8a-hexahydropyrido[4,3-b][1,4]oxazine-6-carbonyl]-4-piperidyl]-phenyl-methyl]phenoxy]ethylamino]-3-oxo-propoxy]ethyl]carbamate]",8.49
9,"NCCOc1cccc(C(c2ccccc2)C2CCN(C(=O)N3CC[C@@H]4OCC(=O)N[C@@H]4C3)CC2)c1 (single isomer, unassigned) [Example 7, (4aR,8aS)-6-[4-[(R or S)-[3-(2-Aminoethoxy)phenyl]-phenyl-methyl]piperidine-1-carbonyl]-4,4a,5,7,8,8a-hexahydropyrido[4,3-b][1,4]oxazin-3-one]",7.31
10,"CC(C)(C)OC(=O)NCCOc1cccc(C(c2ccccc2)C2CCN(C(=O)N3CC[C@@H]4OCC(=O)N[C@@H]4C3)CC2)c1 (single isomer, unassigned) [Example 4, tert-Butyl N-[2-[3-[(R or S)-[1-[(4aR,8aS)-3-oxo-4,4a,5,7,8,8a-hexahydropyrido[4,3-b][1,4]oxazine-6-carbonyl]-4-piperidyl]-phenyl-methyl]phenoxy]ethyl]carbamate]",9.52
